{"source": "patent US7838706B2", "about": "“Preparation and the use of ethoxy combretastatins and their prodrugs” (priority 2006, dated 2010)", "assay_type_in_all_cases": "cell-based", "key": {"[1]": {"tested_on": "SGC7901 (human stomach cancer cell)", "assay": "In vitro anti-tumor activity evaluation (SRB/MTT, 72 hours)", "details": "read-out: IC50 Stomach cancer SGC-7901", "description": "(§1) The tumor cell cultured in vitro was treated with ethoxy combretastatin derivatives for 72 hours, and the MTT and SRB assays was used to evaluate its inhibition of tumor proliferation.\n(§2) Cell Line: H460 (human lung cancer cell), SGC7901 (human stomach cancer cell), HT-29 (human colon cancer cell), Bel-7402 (human liver cancer cell).\n(§3) Experimental Design: The cells were incubated with the compounds in various concentrations (100, 10, 1, 0.1, 0.01, 0.001 μM) for 72 hours. SRB assay was used to evaluate the inhibition effect of the compounds on cell proliferation. The inhibition rate was calculated, and IC50 was calculated by using Logit model as a function of the inhibition rate. And the anti-tumor activity of the compounds in vitro was compared.\n(§4) The Inhibition Rate was Expressed Using the Following Equation: Inhibition rate (%)=[(average OD value of control group−average OD value of experimental group)/average OD value of control group]×100%."}, "[2]": {"tested_on": "Bel-7402 (human liver cancer cell)", "assay": "In vitro anti-tumor activity evaluation (SRB/MTT, 72 hours)", "details": "read-out: IC50 Liver cancer Bel-7402", "description": "as §1, §2, §3, §4"}, "[3]": {"tested_on": "HT-29 (human colon cancer cell)", "assay": "In vitro anti-tumor activity evaluation (SRB/MTT, 72 hours)", "details": "read-out: IC50 Colon cancer HT29", "description": "as §1, §2, §3, §4"}, "[4]": {"tested_on": "H460 (human lung cancer cell)", "assay": "In vitro anti-tumor activity evaluation (SRB/MTT, 72 hours)", "details": "read-out: IC50 Non-small cell lung cancer H460", "description": "as §1, §2, §3, §4"}, "[5]": {"tested_on": "human umbilical vein endothelial cells (HUVEC)", "assay": "In vitro neovascular inhibition evaluation", "description": "Anti-angiogenesis effects of ethoxy combretastatins were assessed in human umbilical vein endothelial cells (HUVEC) using the same method described in Example 10."}, "[6]": {"details": "Homo sapiens, read-out: IC50 HUVEC"}}, "note": "Where two headings read alike, the source gives them in different places.", "data": [{"smiles": "CCOc1ccc(/C=C\\c2cc(OC)c(OC)c(OC)c2)cc1O", "note": "[Ethoxy combretastatin, (Z)-1-(3,4,5-trimethoxy)phenyl-2-(3′-hydroxy-4′-ethoxy) Phenylethylene]", "values": [{"measurement": "IC50", "setting": "[1]; Homo sapiens, SGC-7901, 72 h", "result": 8, "unit": "nM"}, {"measurement": "IC50", "setting": "[2]; Homo sapiens, Bel-7402, 72 h", "result": 620, "unit": "nM"}, {"measurement": "IC50", "setting": "[3]; Homo sapiens, HT-29, 72 h", "result": 47, "unit": "nM"}, {"measurement": "IC50", "setting": "[4]; Homo sapiens, NCI-H460, 72 h", "result": 11, "unit": "nM"}, {"measurement": "IC50", "setting": "[5]; [6]", "result": 2200, "unit": "nM"}]}, {"smiles": "CCOc1ccc(/C=C\\c2cc(OC)c(OC)c(OC)c2)cc1N", "note": "[3′-Amino ethoxy combretastatin, (Z)-1-(3,4,5-trimethoxy)phenyl-2-(3′-amino-4′-ethoxy) Phenylethylene]", "values": [{"measurement": "IC50", "setting": "[1]; Homo sapiens, SGC-7901, 72 h", "result": 6, "unit": "nM"}, {"measurement": "IC50", "setting": "[2]; Homo sapiens, Bel-7402, 72 h", "result": 330, "unit": "nM"}, {"measurement": "IC50", "setting": "[3]; Homo sapiens, HT-29, 72 h", "result": 25, "unit": "nM"}, {"measurement": "IC50", "setting": "[4]; Homo sapiens, NCI-H460, 72 h", "result": 8, "unit": "nM"}, {"measurement": "IC50", "setting": "[5]; [6]", "result": 1500, "unit": "nM"}]}, {"smiles": "COc1ccc(/C=C\\c2cc(OC)c(OC)c(OC)c2)cc1O", "note": "[CA-4, (Z)-1-(3,4,5-trimethoxy)phenyl-2-(3′-hydroxy-4′-methoxy)phenylethylene]", "values": [{"measurement": "IC50", "setting": "[1]; SGC-7901 cells, 72 hours incubation", "result": 10, "unit": "nM"}, {"measurement": "IC50", "setting": "[2]; Bel-7402 cells, 72 hours incubation", "result": 750, "unit": "nM"}, {"measurement": "IC50", "setting": "[3]; HT29 cells, 72 hours incubation", "result": 2380, "unit": "nM"}, {"measurement": "IC50", "setting": "[4]; H460 cells, 72 hours incubation", "result": 27, "unit": "nM"}, {"measurement": "IC50", "setting": "[5]; same method as Example 10, read-out: IC50 HUVEC", "result": 3700, "unit": "nM"}]}]}
